These results are taken from US20100331333A1, “Imidazo [1,2-B] Pyridazine Compounds” (Wyeth LLC, priority 2007, published 2010).

One test has as its target T1, human LXRα (Homo sapiens, UniProt Q13133).
T1 construct: biotin (biotinylated); made in house; host or cells: E. coli
T1 sequence (Q13133 1-447): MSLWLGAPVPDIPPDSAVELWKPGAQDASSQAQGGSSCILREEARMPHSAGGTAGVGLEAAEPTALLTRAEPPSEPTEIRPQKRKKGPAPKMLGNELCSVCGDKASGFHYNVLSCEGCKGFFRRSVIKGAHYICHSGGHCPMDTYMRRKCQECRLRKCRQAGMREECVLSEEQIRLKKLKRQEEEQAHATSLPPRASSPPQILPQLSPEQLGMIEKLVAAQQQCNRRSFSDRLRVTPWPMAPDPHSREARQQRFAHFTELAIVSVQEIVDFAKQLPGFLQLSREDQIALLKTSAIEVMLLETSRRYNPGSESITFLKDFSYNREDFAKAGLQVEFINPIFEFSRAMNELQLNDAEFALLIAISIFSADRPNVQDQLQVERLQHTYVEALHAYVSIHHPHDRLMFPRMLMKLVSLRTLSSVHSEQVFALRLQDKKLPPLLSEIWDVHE
Nature of the test: Ligand-binding test procedure for human LXRα. The settings on record: 3H T0901317 tracer; biotinylated hLXRα from E. coli extract. As to the method:
II. Ligand-Binding Test Procedure for Human LXRα.
(§1) Buffer: 100 mM KCl, 100 mM TRIS (pH 7.4 at +4° C.), 8.6% glycerol, 0.1 mM PMSF*, 2 mM MTG*, 0.2% CHAPS (* not used in wash buffer)
Receptor source: E. coli extract from cells expressing biotinylated hLXRα. Extract was made in a similar buffer as above, but with 50 mM TRIS.
(§2) Washed streptavidin and coated flash plates with wash buffer. Diluted receptor extract to give Bmax ˜4000 cpm and add to the wells. Wrapped the plates in aluminum foil and stored them at +4° C. over night.
Made a dilution series in DMSO of the test ligands. Made a 5 nM solution of the radioactive tracer in buffer. Mixed 250 μl diluted tracer with 5 μl of the test ligand from each concentration of the dilution series.
Washed the receptor-coated flash plates.
Added 200 μl per well of the ligand/radiolabel mixture to the receptor-coated flash plates. Wrapped the plates in aluminum foil and incubate at +4° C. over night.
(§3) Aspirated wells, and wash the flashed plates. Sealed the plate. Measured the remaining radioactivity in the plate.

The next test addresses T2, human LXRβ (Homo sapiens, UniProt P55055).
T2 construct: biotin (biotinylated); made in house; host or cells: E. coli
T2 sequence (P55055 1-460): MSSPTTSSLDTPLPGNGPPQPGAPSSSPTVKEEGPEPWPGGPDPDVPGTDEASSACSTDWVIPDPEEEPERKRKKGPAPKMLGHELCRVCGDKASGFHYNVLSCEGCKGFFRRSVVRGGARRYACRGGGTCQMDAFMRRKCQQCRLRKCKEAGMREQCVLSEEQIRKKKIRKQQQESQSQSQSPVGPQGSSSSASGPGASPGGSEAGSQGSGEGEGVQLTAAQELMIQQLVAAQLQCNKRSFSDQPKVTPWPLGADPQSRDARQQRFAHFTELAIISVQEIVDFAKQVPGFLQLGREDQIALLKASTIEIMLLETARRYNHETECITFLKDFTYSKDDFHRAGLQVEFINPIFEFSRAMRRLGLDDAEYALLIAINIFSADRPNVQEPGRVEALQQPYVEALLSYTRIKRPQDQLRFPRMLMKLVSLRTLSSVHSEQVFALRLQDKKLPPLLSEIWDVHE
Briefly: Ligand-binding test procedure for human LXRβ. The settings on record: 3H T0901317 tracer; biotinylated hLXRβ from E. coli extract. The method, then: IV. Ligand-Binding Test Procedure for Human LXRβ.
as §1
Receptor source: E. coli extract from cells expressing biotinylated hLXRβ. Extract was made in a similar buffer as above, but with 50 mM TRIS.
as §2
Made a dilution series in DMSO of the test ligands. Made a 5 nM solution of the radioactive tracer in buffer. Mixed 250 μl diluted tracer with 5 μl of the test ligand from each concentration of the dilution series. Washed the receptor-coated flash plates. Added 200 μl per well of the ligand/radiolabel mixture to the receptor-coated flash plates. Wrapped the plates in aluminum foil and incubate at +4° C. over night.
as §3

Another test deals with ABCA1 gene. Briefly: Quantitative analysis of ABCA1 gene regulation in THP-1 cells. It is filed as cell-based. The conditions noted are these: Gene regulation by LXR (human), differentiated THP-1 cells; for EC50: 18 hrs, ABCA1 mRNA by real-time PCR; for Agonism ABCA1: LXR agonist reference dosed at 1.0 uM as positive control. The method, then:
III. Quantitative Analysis of ABCA1 Gene Regulation in THP-1 Cells.
The compounds of formula (I) effect on the regulation of the ABCA1 gene was evaluated using the following procedure.
Cell culture: The THP-1 monocytic cell line (ATCC # TIB-202) was obtained from American Type Culture Collection (Manassas, Va.) and cultured in RPMI 1640 medium (Gibco, Carlsbad, Calif.) containing 10% FBS, 2 mM L-glutamine, and 55 uM beta-Mercaptoethanol (BME). Cells were plated in 96-well format at a density of 7.5×10^4 in complete medium containing 50-100 ng/ml phorbal 12,13-dibutyrate (Sigma, St. Louis, Mo.) for three days to induce differentiation into adherent macrophages. Differentiated THP-1 cells were treated with test compounds or ligands dissolved in DMSO (Sigma, D-8779) in culture medium lacking phorbal ester. […] Dose response effects were measured in duplicate, in the range of 0.001 to 30 micromolar concentrations and treated cells were incubated for an additional 18 hrs prior to RNA isolation. Unstimulated cells treated with vehicle were included as negative controls on each plate. An LXR agonist reference, N-(2,2,2-trifluoro-ethyl)-N-[4-(2,2,2-trifluoro-1-hydroxy-1-trifluoromethyl-ethyl)-phenyl]-benzenesulfonamide (Schultz, Joshua R., Genes & Development (2000), 14(22), 2831-2838), was dosed at 1.0 uM and served as a positive control. In antagonist mode, the compound under study is analyzed in the presence of 150 nM GW3965, trifluoromethyl-benzyl)-(2,2-diphenyl-ethyl)-amino]-propoxy]-phenyl)-acetic acid (Collins, J. L., J. Med. Chem. (2000), 45:1963-1966.). Results of antagonist analysis are expressed as % antagonism and IC50 (in μM). RNA isolation and quantitation: Total cellular RNA was isolated from treated cells cultured in 96-well plates using PrepStation 6100 (Applied Biosystems, Foster City, Calif.), according to the manufacturer's recommendations. RNA was resuspended in ribonuclease-free water and stored at −70° C. prior to analysis. RNA concentrations were quantitated with RiboGreen test procedure, #R-11490 (Molecular Probes, Eugene, Oreg.). Gene expression analysis: Gene-specific mRNA quantitation was performed by real-time PCR with the Perkin Elmer Corp. chemistry on an ABI Prism 7700 Sequence detection system (Applied Biosystems, Foster City, Calif.) according to the manufacturer's instructions. Samples (50-100 ng) of total RNA were assayed in duplicate or triplicate in 50 ul reactions using one-step RT-PCR and the standard curve method to estimate specific mRNA concentrations. Sequences of gene-specific primer and probe sets were designed with Primer Express Software (Applied Biosystems, Foster City, Calif.). The human ABCA1 primer and probe sequences are: forward, […], reverse, […], and probe, 6FAM-[…]-TAMRA. RT and PCR reactions were performed according to PE Applied Biosystem's protocol for Taqman Gold RT-PCR or Qiagen's protocl for Quantitect probe RT-PCR. Relative levels of ABCA1 mRNA are normalized using GAPDH mRNA or 18S rRNA probe/primer sets purchased commercially (Applied Biosystems, Foster City, Calif.).
Mean, standard deviation and statistical significance of duplicate evaluations of RNA samples were assessed using ANOVA, one-way analysis of variance using SAS analysis.
(Quantitative PCR measures a nucleic acid by following its amplification.)

Usually IC50 stands for the concentration that inhibits the measured activity by half. A high value points to weaker potency in that assay. In the case of `CS(=O)(=O)c1cccc(Oc2cccc(-c3c(Cc4ccccc4)nc4c(C(F)(F)F)ccnn34)c2)c1` [Example 7, 2-Benzyl-3-{3-[3-(methylsulfonyl)phenoxy]phenyl}-8-(trifluoromethyl)imidazo[1,2-b]pyridazine], the IC50 was 44 nM on human LXRα and 1.96 nM at human LXRβ.

As usually defined, the EC50 is the concentration that produces a half-maximal response. Low readings indicate higher potency in that assay, high ones lower potency in that assay. Turning to `CCc1nc2c(C(F)(F)F)ccnn2c1-c1cccc(Oc2cccc(S(C)(=O)=O)c2)c1` [Example 8, 2-ethyl-3-{3-[3-(methylsulfonyl)phenoxy]phenyl}-8-(trifluoromethyl)imidazo[1,2-b]pyridazine], on human LXRα, the IC50 is 2040 nM. Moreover, the IC50 on human LXRβ worked out at 133 nM. Moreover, in the test on ABCA1 gene, the EC50 came out at 1850 nM and the “Agonism ABCA1” value stood at 85%.

For the compound `CCc1nc2c(C(F)(F)F)ccnn2c1-c1cccc(Oc2cccc(S(=O)(=O)CC)c2)c1` [Example 9, 2-Ethyl-3-{3-[3-(ethylsulfonyl)phenoxy]phenyl}-8-(trifluoromethyl)imidazo[1,2-b]pyridazine], the IC50 at human LXRα was 1570 nM; on human LXRβ, 148 nM.

The compound `CC(C)c1nc2c(C(F)(F)F)ccnn2c1-c1cccc(Oc2cccc(S(C)(=O)=O)c2)c1` [Example 10, 2-isopropyl-3-{3-[3-(methylsulfonyl)phenoxy]phenyl}-8-(trifluoromethyl)imidazo[1,2-b]pyridazine] showed a concentration for half-maximal inhibition (IC50) on human LXRα of 1460 nM. Also, on human LXRβ, the IC50 stood at 99 nM. Besides, in the test on ABCA1 gene, the EC50 amounted to 1840 nM and the “Agonism ABCA1” value is recorded as 81%.

`CCS(=O)(=O)c1cccc(Oc2cccc(-c3c(C(C)C)nc4c(C(F)(F)F)ccnn34)c2)c1` [Example 11, 3-{3-[3-(ethylsulfonyl)phenoxy]phenyl}-2-isopropyl-8-(trifluoromethyl)imidazo[1,2-b]pyridazine]: the IC50 at human LXRα was 1090 nM; on human LXRβ, 117 nM. In addition, in the test on ABCA1 gene, it took 2050 nM to reach a half-maximal effect (EC50). The “Agonism ABCA1” value in the test on ABCA1 gene stood at 92%.
